Measurements taken from ChEMBL document CHEMBL1157204, “Synthesis and structure-activity relationship of histone deacetylase (HDAC) inhibitors with triazole-linked cap group” (Bioorg Med Chem, 2008).

Columns and labels:
[1] = target: Histone deacetylase; assay: Inhibition of human HDAC in HeLa cells by flour de lys assay; type: cell-based
[2] = test system: DU-145; assay: Viability of human DU145 cells after 72 hrs by MTS assay; type: functional, cell-based; conditions: DU-145, 72 h
[3] = test system: DU-145; assay: Viability of human DU145 cells after 72 hrs by trypan blue staining; type: functional, cell-based; conditions: DU-145, 72 h

Structure (SMILES)	IC50 [1] [nM]	EC50 [2] [nM]	EC50 [3] [nM]
COc1ccc(-c2cn(CCCCCC(=O)NO)nn2)cc1	2.09		
COc1ccccc1-c1cn(CCCCCC(=O)NO)nn1	76		
COc1cccc(OC)c1-c1cn(CCCCCC(=O)NO)nn1	315.9		
O=C(CCCCCn1cc(-c2cccc(-c3ccccc3)c2)nn1)NO	1.9		
O=C(CCCCCCn1cc(-c2cccc(-c3ccccc3)c2)nn1)NO	5.4		
O=C(CCCCCn1cc(-c2ccccc2-c2ccccc2)nn1)NO	162.6		
O=C(CCCCCn1cc(-c2ccc(-c3ccncc3)cc2)nn1)NO	2.3	3070	4720
O=C(CCCCCCn1cc(-c2ccc(-c3ccncc3)cc2)nn1)NO	16.6		
COc1ccc2cc(-c3cn(CCCCCCC(=O)NO)nn3)ccc2c1	15.3	3990	7760
O=C(CCCCCn1cc(-c2ccccc2)nn1)NO	14.2		
O=C(CCCCCCn1cc(-c2ccccc2)nn1)NO	9.6		
CN(C)c1ccc(-c2cn(CCCCCC(=O)NO)nn2)cc1	4.3		
CN(C)c1ccc(-c2cn(CCCCCCC(=O)NO)nn2)cc1	106.1		
O=C(CCCCCn1cc(-c2cccnc2)nn1)NO	287.2		
O=C(CCCCCn1cc(-c2ccc3cccnc3c2)nn1)NO	151.5		
O=C(CCCCCn1cc(-c2ccncc2)nn1)NO	112.5		
O=C(CCCCCCn1cc(-c2ccccn2)nn1)NO	23.9		
Cc1ccccc1-c1cn(CCCCCC(=O)NO)nn1	17.4		
COc1ccc2cc(-c3cn(CCCCCC(=O)NO)nn3)ccc2c1	1.8	2600	3950
O=C(CCCCCn1cc(-c2ccc(-c3ccccc3)cc2)nn1)NO	52.4		
O=C(CCCCCn1cc(-c2cccs2)nn1)NO	31.7		
Cc1ccc(-c2cn(CCCCCC(=O)NO)nn2)cc1	43.4		
Cc1cccc(-c2cn(CCCCCC(=O)NO)nn2)c1	31.9		
COc1cccc(-c2cn(CCCCCC(=O)NO)nn2)c1	13.9		
O=C(CCCCCn1cc(-c2ccc3ccccc3n2)nn1)NO	2.1	2460	2250
O=C(CCCCCCC(=O)Nc1ccccc1)NO [VORINOSTAT]			2120
